Laboratory results taken from patent US10342804B2, “Steroid compound for use in the treatment of hepatic encephalopathy” (Umecrine Cognition AB, priority 2014, dated 2019).

Legend:
[1] = molecular target: T1, human α5β3γ2L GABAA receptors (Homo sapiens, UniProt P28472+P31644); assay: Whole-cell voltage-clamp electrophysiology, HEK-293 cells expressing α5β3γ2L GABAA receptors; assay type: cell-based; conditions: α5β3γ2L expressing cells
T1 construct: expressed in transfected cells; host or cells: HEK-293, permanently transfected
Procedure: (§1) For electrophysiology measurements the Dynaflow® system with the Resolve chip was used (Cellectricon, Göteborg, Sweden). HEK-293 cells were permanently transfected with vectors including the human CMV promoter for constitutive expression of the human α5, β3, and γ2L GABAA receptor subunits (α5β3γ2L) or the human α1, β2, and γ2L GABAA receptor subunits (α1β2γ2L). The cell lines used were selected for good reactivity to GABA and to THDOC. Before measurements cells were incubated for 15 min at 37° C. in 95% air+5% CO2 in extracellular solution (EC) containing the following: 137 mM NaCl, 5.0 mM KCl, 1.0 mM CaCl2, 1.2 mM MgCl2, 10 mM HEPES, and 10 mM glucose, 0.1% DMSO pH 7.4. Thereafter, detached cells were added to the EC solution in the Dynaflow chip bath.
(§2) Whole-cell voltage-clamp recordings were made at room temperature (21-23° C., −17 mV with compensation for liquid junction potential as in Haage et al., 2002; Neher, 1992). Command pulses were generate and data collected by PClamp 9.0 software, DigiData 1322A converter, and AxonPatch 200B (Axon Instruments, Foster City, Calif.). Patch electrodes (2-6 MΩ) were filled with intracellular solution (IC) including: 140 mM Cs-gluconate, 3.0 mM NaCl, 1.2 mM MgCl2, 10 mM HEPES, 1.0 mM EGTA, 2 mM Mg-ATP, 0.1% DMSO, pH 7.2.
(§3) THDOC and 3α-ethynyl-3β-hydroxyandrostan-17-one oxime were dissolved in dimethyl sulfoxide (DMSO) and thereafter diluted with EC solution to include 0.1% DMSO.
(§4) Different protocols were used for different electrophysiology measurements. As α1β2γ2L-GABAA receptors in vivo are present within the synapse a condition resembling that situation, a short application (40 ms) of a high GABA concentration (30 μM), was used. Contrary, α5β3γ2L-GABAA receptors are present extrasynaptically, thus the conditions used were long exposures (6 s) to a low GABA concentration (0.3 μM). The EC75 concentration of THDOC was used, i.e. 100 nM with studies of α1β2γ2L and 200 nM when α5β3γ2L expressing cells were evaluated. With both cell types a pre-exposure with THDOC or THDOC plus 3α-ethynyl-3β-hydroxyandrostan-17-one oxime was used before application of GABA.
(§5) Steroid effects in presence of GABA were normalized to controls in order to avoid the effects of inter- and intracellular variation in the measured parameters, each cell was used as its own control and the area under the curve (AUC) was analyzed.

[2] = molecular target: T2, human α1β2γ2L GABAA receptors (Homo sapiens, UniProt P14867+P47870); assay: Whole-cell voltage-clamp electrophysiology, HEK-293 cells expressing α1β2γ2L GABAA receptors; assay type: cell-based; conditions: α1β2γ2L expressing cells
T2 construct: expressed in transfected cells; host or cells: HEK-293, permanently transfected
Procedure: as §1, §2, §3, §4, §5

T2 sequence (P14867 28-456): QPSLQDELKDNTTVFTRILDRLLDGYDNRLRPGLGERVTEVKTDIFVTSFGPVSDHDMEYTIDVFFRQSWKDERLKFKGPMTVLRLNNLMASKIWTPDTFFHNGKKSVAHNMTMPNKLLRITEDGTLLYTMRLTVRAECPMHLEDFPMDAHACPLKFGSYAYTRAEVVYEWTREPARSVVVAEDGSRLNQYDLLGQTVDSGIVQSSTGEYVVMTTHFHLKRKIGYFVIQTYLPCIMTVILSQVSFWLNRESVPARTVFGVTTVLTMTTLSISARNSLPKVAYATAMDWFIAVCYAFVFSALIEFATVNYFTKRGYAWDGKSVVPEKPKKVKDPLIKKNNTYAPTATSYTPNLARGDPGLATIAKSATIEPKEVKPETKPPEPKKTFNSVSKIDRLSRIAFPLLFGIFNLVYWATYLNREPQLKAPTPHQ
T2 sequence (P47870 25-512 limits assumed): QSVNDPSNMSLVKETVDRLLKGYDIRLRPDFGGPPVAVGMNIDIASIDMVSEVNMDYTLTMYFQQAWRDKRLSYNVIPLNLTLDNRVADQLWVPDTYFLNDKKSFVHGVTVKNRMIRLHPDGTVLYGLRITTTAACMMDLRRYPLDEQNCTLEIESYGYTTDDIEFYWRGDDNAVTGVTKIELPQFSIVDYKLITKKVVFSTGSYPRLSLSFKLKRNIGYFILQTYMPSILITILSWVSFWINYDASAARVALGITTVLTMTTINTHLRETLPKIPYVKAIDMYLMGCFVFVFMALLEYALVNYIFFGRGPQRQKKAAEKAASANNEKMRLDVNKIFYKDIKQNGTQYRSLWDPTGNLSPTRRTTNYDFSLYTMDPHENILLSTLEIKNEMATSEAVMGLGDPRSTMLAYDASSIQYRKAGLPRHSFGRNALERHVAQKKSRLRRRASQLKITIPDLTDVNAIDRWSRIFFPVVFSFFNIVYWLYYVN
T2 sequence (P18507 40-475 partner): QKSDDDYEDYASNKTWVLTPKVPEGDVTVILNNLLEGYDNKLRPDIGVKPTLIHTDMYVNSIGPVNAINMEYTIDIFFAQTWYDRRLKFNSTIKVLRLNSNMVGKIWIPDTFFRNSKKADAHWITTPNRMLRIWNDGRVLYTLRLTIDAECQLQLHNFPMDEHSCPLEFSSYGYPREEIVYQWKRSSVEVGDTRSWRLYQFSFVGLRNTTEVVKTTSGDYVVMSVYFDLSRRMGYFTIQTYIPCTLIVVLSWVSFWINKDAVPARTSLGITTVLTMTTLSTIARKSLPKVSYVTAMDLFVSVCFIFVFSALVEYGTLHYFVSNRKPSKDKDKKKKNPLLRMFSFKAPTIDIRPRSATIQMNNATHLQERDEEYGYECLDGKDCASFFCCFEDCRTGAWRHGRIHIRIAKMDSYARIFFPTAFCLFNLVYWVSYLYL
T1 sequence (P31644 32-462): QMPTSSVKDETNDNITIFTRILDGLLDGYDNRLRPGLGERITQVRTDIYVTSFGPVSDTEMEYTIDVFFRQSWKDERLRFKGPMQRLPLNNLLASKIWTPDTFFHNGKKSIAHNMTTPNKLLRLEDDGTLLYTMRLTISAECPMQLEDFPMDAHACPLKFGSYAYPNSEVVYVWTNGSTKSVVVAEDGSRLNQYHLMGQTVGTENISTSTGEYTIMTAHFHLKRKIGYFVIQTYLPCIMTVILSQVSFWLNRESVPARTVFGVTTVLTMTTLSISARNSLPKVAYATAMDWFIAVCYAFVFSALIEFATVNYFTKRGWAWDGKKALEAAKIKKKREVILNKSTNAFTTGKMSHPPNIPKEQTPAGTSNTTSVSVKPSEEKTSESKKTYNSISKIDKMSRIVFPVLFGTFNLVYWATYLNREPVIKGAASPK
T1 sequence (P28472 26-473): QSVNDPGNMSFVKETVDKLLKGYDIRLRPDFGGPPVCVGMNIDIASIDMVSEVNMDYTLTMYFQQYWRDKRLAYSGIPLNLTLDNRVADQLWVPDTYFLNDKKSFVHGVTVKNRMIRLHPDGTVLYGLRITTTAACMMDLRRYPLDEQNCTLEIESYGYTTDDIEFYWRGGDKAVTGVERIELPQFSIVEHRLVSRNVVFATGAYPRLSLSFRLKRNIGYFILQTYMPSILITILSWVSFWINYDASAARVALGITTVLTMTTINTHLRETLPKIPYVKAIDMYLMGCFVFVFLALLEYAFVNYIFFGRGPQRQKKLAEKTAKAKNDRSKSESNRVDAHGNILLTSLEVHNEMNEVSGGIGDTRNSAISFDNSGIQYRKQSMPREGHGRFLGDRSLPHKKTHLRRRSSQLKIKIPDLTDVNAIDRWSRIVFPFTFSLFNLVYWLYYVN
T1 sequence (P18507 40-475 partner): as the sequence (P18507 40-475 partner) above

C[C@]12CC[C@@H](O)C[C@H]1CC[C@@H]1[C@@H]2CC[C@]2(C)[C@@H](C(=O)CO)CC[C@@H]12 [THDOC, tetrahydrodeoxycorticosterone, reference compound]
EC75 concentration of THDOC [1]: 200 nM
EC75 concentration of THDOC [2]: 100 nM
